Assay results from ChEMBL document CHEMBL3580652, “Hikiamides A-C, Cyclic Pentadepsipeptides from Fusarium sp. TAMA 456” (J Nat Prod, 2015).
Calls of active or inactive are those of the source. The rule behind the calls is not given here. Where a SMILES comes first, the peptide text is derived from it. [ ]: non-standard residue; d: D form. Hica(2S) = CC(C)C[C@H](O)C(=O)O; NMeL = CN[C@@H](CC(C)C)C(=O)O

Experiments:
ST-13 = test: Induction of mouse ST-13 cell differentiation assessed as increase in accumulation of lipid droplets in cytosol at 2 to 4 uM after 11 days by oil red o staining-based phase contrast microscopic analysis; assay type: functional
[1] = target: T1, Peroxisome proliferator-activated receptor gamma (Homo sapiens) (UniProt P37231); test: Agonist activity at human PPARgamma ligand binding domain fused with GAL4 DNA binding domain transfected in African green monkey COS1 cells assessed as transcriptional activation after 24 hrs by Steady-Glo luciferase reporter gene assay; assay type: cell-based; conditions: COS-1
T1 sequence (whole entry): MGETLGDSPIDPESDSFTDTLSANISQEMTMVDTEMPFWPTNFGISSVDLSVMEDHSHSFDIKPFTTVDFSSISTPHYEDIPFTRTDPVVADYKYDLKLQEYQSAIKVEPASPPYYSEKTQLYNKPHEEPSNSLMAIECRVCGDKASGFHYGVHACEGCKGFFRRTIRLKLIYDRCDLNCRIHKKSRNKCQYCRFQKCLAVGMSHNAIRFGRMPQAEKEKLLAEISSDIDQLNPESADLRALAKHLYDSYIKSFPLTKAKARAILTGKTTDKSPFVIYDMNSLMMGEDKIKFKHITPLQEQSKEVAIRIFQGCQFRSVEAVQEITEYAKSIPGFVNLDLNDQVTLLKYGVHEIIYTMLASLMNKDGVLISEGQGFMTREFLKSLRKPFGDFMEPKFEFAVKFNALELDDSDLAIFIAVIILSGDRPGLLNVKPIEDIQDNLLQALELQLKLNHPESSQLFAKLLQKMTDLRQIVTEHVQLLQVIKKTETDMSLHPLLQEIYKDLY

[2] = Upregulation of adiponectin mRNA expression in mouse ST-13 cells at 2 uM by RT-qPCR analysis relative to control; assay type: functional, cell-based

| Activity [1] | Compound | Activity (ST-13) | fold change (FC) [2] |
| --- | --- | --- | --- |
| Dose-dependent effect | CC(C)C[C@@H]1NC(=O)[C@H](C(C)C)NC(=O)[C@H](CC(C)C)OC(=O)[C@H](Cc2ccccc2)NC(=O)[C@H](Cc2ccccc2)NC1=O (cyclo(FF[Hica(2S)]VL)) | Active | 5.2 |
| Dose-dependent effect | CC(C)C[C@@H]1OC(=O)[C@H](Cc2ccccc2)NC(=O)[C@H](Cc2ccccc2)NC(=O)[C@H](CC(C)C)N(C)C(=O)[C@H](C(C)C)NC1=O (cyclo(FF[Hica(2S)]V[NMeL])) | Active | 13.3 |
| Dose-dependent effect | CC(C)C[C@@H]1OC(=O)[C@H](Cc2ccccc2)NC(=O)[C@H](Cc2c[nH]c3ccccc23)NC(=O)[C@H](CC(C)C)N(C)C(=O)[C@H](C(C)C)NC1=O (cyclo(F[Hica(2S)]V[NMeL]W)) | Active | 10 |
